In this test the target is T1, human PAR-2 (hPAR-2) receptor expressed in HEK-293 T cells in an endogenous manner (Homo sapiens, UniProt P55085).
T1 construct: human PAR-2 (hPAR-2) receptor expressed in HEK-293 T cells in an endogenous manner; endogenous in cells; host or cells: HEK-293 T cells
T1 sequence (P55085 26-397): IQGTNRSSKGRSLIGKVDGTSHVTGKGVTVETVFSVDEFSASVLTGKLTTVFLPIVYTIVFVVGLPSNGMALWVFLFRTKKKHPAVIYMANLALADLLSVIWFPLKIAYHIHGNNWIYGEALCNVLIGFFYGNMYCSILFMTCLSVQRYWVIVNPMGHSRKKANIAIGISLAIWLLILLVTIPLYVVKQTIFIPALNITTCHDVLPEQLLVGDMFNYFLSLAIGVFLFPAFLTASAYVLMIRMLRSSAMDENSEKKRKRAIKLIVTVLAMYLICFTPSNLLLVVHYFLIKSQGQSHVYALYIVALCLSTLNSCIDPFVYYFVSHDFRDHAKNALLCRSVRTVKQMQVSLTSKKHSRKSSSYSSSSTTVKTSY
Description: In vitro human PAR-2 functional antagonist activity using calcium assays (Fluo4AM, FLIPR Tetra). To be noted: HEK-293 T cells stimulated by an EC80 of the 2-Furoyl-LIGRLO-NH2 peptide after 10 min incubation with compound; 20 concentrations, duplicate, two independent experiments. In kind it is cell-based. Here is the method:
In vitro human PAR-2 functional antagonist activity using calcium assays
Examples of the present invention were tested successively for their agonist and antagonist activities on human PAR-2 (hPAR-2) receptor expressed in HEK-293 T cells in an endogenous manner. Compounds exert agonist activity if, by themselves in absence of the 2-Furoyl-LIGRLO-NH2 peptide (selective hPAR-2 agonist), they activate PAR-2; they exert antagonist activity if they decrease the action of the 2-Furoyl-LIGRLO-NH2 peptide on the receptor. The assay used to determine compound activity is based on calcium measurement.
Cell Culture: HEK-293 T cells were maintained in Dulbecco's Modified Eagle's Medium supplemented with 10% Foetal Calf Serum, 1% Penicillin/Streptomycin at 37° C./5% CO2. Flasks for tests (F75) are seeded with 6e+06 cells 24 h before the experiment at 37° C./5% CO2.
Calcium assay: Receptor activity was detected by changes in intracellular calcium measured using the fluorescent Ca^2+ sensitive dye, Fluo4AM (Molecular Probes).
The day of the assay, medium was replaced by assay buffer (HBSS 1× (Gibco 14175-053), Hepes 20 mM, MgSO4-7H2O 1 mM, Na2CO3 3.3 mM, CaCl2-2H2O 1.3 mM, 0.5% BSA, Probenecid 2.5 mM, 0.1 mg/mL Pluronic Acid) and complemented with 1 μM Fluo4AM and cells were incubated during 1:30 h at 37° C.
Cells were then detached, resuspended in assay buffer and seeded in 384 wells, transparent-flat bottom black walled plates (2e+04 cells per well). Plates were incubated at +22° C. for 20 min. Compounds stock solutions were prepared in 100% DMSO and dilutions in test buffer were carried out in polypropylene plates with a digital dispenser (D300e, Tecan). Compounds were added to the cells and intracellular Ca^2+ measurements were collected at the same time on FLIPR Tetra® (Molecular Devices) with specific filters (Exc: 470-495 nm/Em: 515-575 nm).
Agonist and antagonist activities of compounds were consecutively evaluated on the same cell plate. Agonist activity was first measured after 10 min incubation with the compound alone. Then, cells were stimulated by an EC80 of the 2-Furoyl-LIGRLO-NH2 peptide and fluorescence was recorded for an additional 5 min. EC80 of the 2-Furoyl-LIGRLO-NH2 peptide was the concentration giving 80% of the maximal 2-Furoyl-LIGRLO-NH2 response. Agonist activities are evaluated in comparison to basal signals evoked by assay buffer or maximal 2-Furoyl-LIGRLO-NH2 response. […] Antagonist activities are evaluated in comparison to basal signals evoked by assay buffer or EC80 of 2-Furoyl-LIGRLO-NH2 alone.

Where a name gives a salt, the structure may show the parent alone. A value given as a limit tells only on which side of the number the result lay.

Take `CC1(C)CN(C(=O)c2ccc3c(-c4ccc(Cl)c(F)c4)cn(C(C)(C)C)c3n2)CCC1C(=O)O` (stereo not drawn) [Example 22, 1-(1-(tert-butyl)-3-(4-chloro-3-fluorophenyl)-1H-pyrrolo[2,3-b]pyridine-6-carbonyl)-3,3-dimethylpiperidine-4-carboxylic acid]: the IC50 was 0.02 to 10 µM.

Turning to `CC(C)Cc1nn(-c2cccc(Cl)c2)c2ccc(C(=O)N3CCNC(=O)C3(C)C)nc12` [Example 67, 4-(1-(3-chlorophenyl)-3-isobutyl-1H-pyrazolo[4,3-b]pyridine-5-carbonyl)-3,3-dimethylpiperazin-2-one], the concentration for half-maximal inhibition (IC50) was 0.02 to 10 µM.

On to `CC(C)Cc1nn(-c2ccccc2Cl)c2ccc(C(=O)N3CCNC(=O)C3(C)C)nc12` [Example 74, 4-(1-(2-chlorophenyl)-3-isobutyl-1H-pyrazolo[4,3-b]pyridine-5-carbonyl)-3,3-dimethylpiperazin-2-one], for which the concentration for half-maximal inhibition (IC50) is > 10 µM.

Turning to `Cc1cc(N2CCN(C(=O)c3ccc4c(-c5ccc(Cl)c(F)c5)nn(C(C)(C)C)c4n3)C(C)(C)C2)nc(C)c1C(=O)O` [Example 87, 6-(4-(1-(tert-butyl)-3-(4-chloro-3-fluorophenyl)-1H-pyrazolo[3,4-b]pyridine-6-carbonyl)-3,3-dimethylpiperazin-1-yl)-2,4-dimethylnicotinic acid], the 50% inhibitory concentration (IC50) lay within 0.02 to 10 µM.

In the case of `Cc1cc(N[C@H]2CCN(C(=O)c3ccc4c(-c5ccc(Cl)c(F)c5)cn(C(C)(C)C)c4n3)C2)nc(C)c1C(=O)O` [Example 154, (S)-6-((1-(1-(tert-butyl)-3-(4-chloro-3-fluorophenyl)-1H-pyrrolo[2,3-b]pyridine-6-carbonyl)pyrrolidin-3-yl)amino)-2,4-dimethylnicotinic acid], the IC50 was > 10 µM.

Regarding `Cc1cc(N2CCN(C(=O)c3ccc4c(n3)c(CC(C)C)nn4-c3ccc(Cl)c(F)c3)C(C)(C)C2)nc(C)c1C(=O)O` [Example 65, 6-(4-(1-(4-chloro-3-fluorophenyl)-3-isobutyl-1H-pyrazolo[4,3-b]pyridine-5-carbonyl)-3,3-dimethylpiperazin-1-yl)-2,4-dimethylnicotinic acid], the IC50 lay in the range of 0.02 to 10 µM.

For the molecule `Cc1cc(N2CCN(C(=O)c3ccc4c(-c5ccc(F)c(F)c5)cn(C(C)(C)C)c4n3)C(C)(C)C2)nc(C)c1C(=O)O` [Example 191, 6-(4-(1-(tert-butyl)-3-(3,4-difluorophenyl)-1H-pyrrolo[2,3-b]pyridine-6-carbonyl)-3,3-dimethylpiperazin-1-yl)-2,4-dimethylnicotinic acid], the IC50 was < 0.02 µM.

Regarding `CC(C)Cc1nn(-c2ccc(Cl)cc2)c2ccc(C(=O)N3CCNC(=O)C3(C)C)nc12` [Example 85, 4-(1-(4-chlorophenyl)-3-isobutyl-1H-pyrazolo[4,3-b]pyridine-5-carbonyl)-3,3-dimethylpiperazin-2-one], the IC50 fell in the range of 0.02 to 10 µM.

Regarding `CC(C)Cc1nn(-c2ccc(Cl)c(F)c2)c2ccc(C(=O)N3CCC(C(=O)O)C(C)(C)C3)nc12` (stereo not drawn) [Example 69, 1-(1-(4-chloro-3-fluorophenyl)-3-isobutyl-1H-pyrazolo[4,3-b]pyridine-5-carbonyl)-3,3-dimethylpiperidine-4-carboxylic acid], the 50% inhibitory concentration (IC50) was > 10 µM.

`COc1ccc(-c2cn(CC(C)C)c3nc(C(=O)N4CCNC(=O)C4(C)C)ccc23)cc1OC` [Example 145, 4-(3-(3,4-dimethoxyphenyl)-1-isobutyl-1H-pyrrolo[2,3-b]pyridine-6-carbonyl)-3,3-dimethylpiperazin-2-one]: the IC50 was > 10 µM.

As for `Cc1cc(NC2CCN(C(=O)c3ccc4c(-c5ccc(Cl)c(F)c5)cn(C(C)(C)C)c4n3)CC2)nc(C)c1C(=O)O` [Example 100, 6-((1-(1-(tert-butyl)-3-(4-chloro-3-fluorophenyl)-1H-pyrrolo[2,3-b]pyridine-6-carbonyl)piperidin-4-yl)amino)-2,4-dimethylnicotinic acid], the half-maximal inhibitory concentration (IC50) is 0.02 to 10 µM.

In the case of `Cc1cc(N2CCN(C(=O)c3ccc4c(-c5ccc(Cl)c(F)c5)cn(C(C)(C)c5ccccn5)c4n3)C(C)(C)C2)nc(C)c1C(=O)O` [Example 131, 6-(4-(3-(4-chloro-3-fluorophenyl)-1-(2-(pyridin-2-yl)propan-2-yl)-1H-pyrrolo[2,3-b]pyridine-6-carbonyl)-3,3-dimethylpiperazin-1-yl)-2,4-dimethylnicotinic acid], the IC50 was < 0.02 µM.

Take `Cc1cc2c(nc1C(=O)N1CCNC(=O)C1(C)C)c(CC(C)C)nn2-c1ccc(Cl)c(F)c1` [Example 81]: the half-maximal inhibitory concentration (IC50) was > 10 µM.

On to `CC(C)Cn1cc(-c2cc3ccccc3o2)c2ccc(C(=O)N3CCNC(=O)C3(C)C)nc21` [Example 224, 4-(3-(benzofuran-2-yl)-1-isobutyl-1H-pyrrolo[2,3-b]pyridine-6-carbonyl)-3,3-dimethylpiperazin-2-one], for which the IC50 was 0.02 to 10 µM.

Turning to `CC[C@@H](C)n1cc(-c2ccc(Cl)c(F)c2)c2ccc(C(=O)N3CCN(c4cc(C)c(C(=O)O)c(C)n4)CC3(C)C)nc21` [Example 165, (R)-6-(4-(1-(sec-butyl)-3-(4-chloro-3-fluorophenyl)-1H-pyrrolo[2,3-b]pyridine-6-carbonyl)-3,3-dimethylpiperazin-1-yl)-2,4-dimethylnicotinic acid], the IC50 was < 0.02 µM.

As for `Cc1cccc(Cn2cc(-c3ccc(Cl)c(F)c3)c3ccc(C(=O)N4CCN(c5cc(C)c(C(=O)O)c(C)n5)CC4(C)C)nc32)n1` [Example 192, 6-(4-(3-(4-chloro-3-fluorophenyl)-1-((6-methylpyridin-2-yl)methyl)-1H-pyrrolo[2,3-b]pyridine-6-carbonyl)-3,3-dimethylpiperazin-1-yl)-2,4-dimethylnicotinic acid hydrochloride], the IC50 was < 0.02 µM.

Regarding `CC(C)Cn1cc(-c2ccc(Cl)cc2F)c2ccc(C(=O)N3CCNC(=O)C3(C)C)nc21` [Example 115, 4-(3-(4-chloro-2-fluorophenyl)-1-isobutyl-1H-pyrrolo[2,3-b]pyridine-6-carbonyl)-3,3-dimethylpiperazin-2-one], the concentration for half-maximal inhibition (IC50) was in the range of 0.02 to 10 µM.

On to `CC(C)Cc1nn(Cc2ccc(Cl)c(F)c2)c2ccc(C(=O)N3CCNC(=O)C3(C)C)nc12` [Example 78, 4-(1-(4-chloro-3-fluorobenzyl)-3-isobutyl-1H-pyrazolo[4,3-b]pyridine-5-carbonyl)-3,3-dimethylpiperazin-2-one], for which the IC50 is > 10 µM.

Regarding `Cc1cc(N(C)C2CCN(C(=O)c3ccc4c(-c5ccc(Cl)c(F)c5)cn(C(C)(C)C)c4n3)CC2)nc(C)c1C(=O)O` [Example 147, 6-((1-(1-(tert-butyl)-3-(4-chloro-3-fluorophenyl)-1H-pyrrolo[2,3-b]pyridine-6-carbonyl)piperidin-4-yl)(methyl)amino)-2,4-dimethyinicotinic acid], the concentration for half-maximal inhibition (IC50) is 0.02 to 10 µM.

Turning to `CC1(C)C(=O)NCCN1C(=O)c1ccc2c(-c3ccc(Cl)c(F)c3)cn(C(C)(C)C)c2n1` [Example 1, 4-(1-(tert-butyl)-3-(4-chloro-3-fluorophenyl)-1H-pyrrolo[2,3-b]pyridine-6-carbonyl)-3,3-dimethylpiperazin-2-one], the IC50 is < 0.02 µM.

Consider `Cc1cc(N2CCN(C(=O)c3ccc4c(-c5ccc(Cl)c(F)c5)cn(CC5CC5)c4n3)C(C)(C)C2)nc(C)c1C(=O)O` [Example 160, 6-(4-(3-(4-chloro-3-fluorophenyl)-1-(cyclopropylmethyl)-1H-pyrrolo[2,3-b]pyridine-6-carbonyl)-3,3-dimethylpiperazin-1-yl)-2,4-dimethylnicotinic acid], for which the IC50 is < 0.02 µM.
